From US5032573A, “Homologs of aprotinin produced from a recombinant host, process, expression vector and recombinant host therefor and pharmaceutical use thereof” (Bayer Aktiengesellschaft, priority 1989, dated 1991)
Each block holds one substance with its values, some of them ahead of it.

Experiments:
Format in all cases: biochemical
porcine trypsin [1] = molecular target: T1, porcine trypsin (Sus scrofa, UniProt P00761); test: Trypsin inhibition assay with Benzoyl-Arg-pNA as the substrate; conditions: for ΔE/10 minutes: control without inhibitor 0.91
T1 construct: purchased Merck 8350
T1 sequence (P00761 9-231): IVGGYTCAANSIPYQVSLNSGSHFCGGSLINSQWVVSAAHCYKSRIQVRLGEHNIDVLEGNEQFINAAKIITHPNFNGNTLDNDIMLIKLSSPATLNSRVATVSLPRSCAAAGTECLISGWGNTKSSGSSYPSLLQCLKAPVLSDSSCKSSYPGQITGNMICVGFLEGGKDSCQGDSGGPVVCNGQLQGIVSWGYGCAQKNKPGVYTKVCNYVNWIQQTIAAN
Experimental: (§1) Glu-52-Aprotinin obtained after cleavage with BrCN was compared with authentic aprotinin for its inhibitory activity against porcine trypsin. Both substrates Pyrglu-Gly-Arg-pNA and Benzoyl-Arg-pNa were used for trypsin determination.
(§2) The stock solution for aprotinin was 1 μg/ml, and for Glu-52-aprotinin 0.6 μg/ml. 0-100-200-300-400-500 μl of this stock solutions were used in the test with Benzol-Arg-pNA. In the test with Pyrglu-Gly-Arg-pNA,0-3-6-9-12-15 μl were used.
(§3) Inhibition of trypsin was determined by means of either the substrate benzoyl-DL-arginine-p-nitroanilide (Merck 1670) or pyroglutamyl-glycyl-arginine-p-nitroanilide, which was synthesized from commercially available pyroglutamyl-glycine (SENN 6886) and arginine-p-nitroanilide×HBr (SENN 9123) by means of the dicyclohexyl carbodiimide condensation method. This substrate is also sold under the designation S-2444 by KABI as an urokinase substrate.
(§4) The former has the advantage of giving a linear response to the amount of Aprotinin in the sample, but has a low sensitivity. The latter one has a high sensitivity, but due to the dissociation of the aprotinin-trypsin-complex at those low concentrations, the dose-response-curve is non linear.
(§5) The buffer for the measurement of trypsin and trypsin inhibitors is 0.2M Tris, pH 8.0 containing 0.01M CaCl2 and 0.05% Tween 80®.
(§6) The determinations can be performed in any spectral photometer which allows readings of optical densities (ODs) at 400 nm. For fully automated measurements, the photometers have to be equipped with a micro processor or must be interfaced with a suitable personal computer.
(§7) Disposable 1 cm semi micro plastic cuvettes are used for all assays. ODs are read in time intervals of 1 minute over 8 cycles at ambient temperature. The average increase of OD per minute is arbitrarily taken as the activity unit.
(§8) For inhibition assays, porcine trypsin (Merck 8350) solution (in 0.001N HCl/50% glycerol) is mixed with the inhibitor sample, adjusted to 500 μl with buffer and incubated for 10 minutes at ambient temperature. The reaction is initiated by the addition of substrate solution. Inhibitory activities are taken from a calibration curve or automatically calculated by computer programs developed especially for this purpose. […]

porcine trypsin [2] = molecular target: T1, porcine trypsin; test: Trypsin inhibition assay with Pyr-Glu-Gly-Arg-pNA as the substrate
Experimental: as §1, §2, §3, §4, §5, §6, §7, §8

anionic human Trypsin = anionic human Trypsin (Homo sapiens, UniProt P07478); test: Kinetic studies, Ki by the method of Empie and Laskowski
Chain of anionic human Trypsin (P07478 24-247): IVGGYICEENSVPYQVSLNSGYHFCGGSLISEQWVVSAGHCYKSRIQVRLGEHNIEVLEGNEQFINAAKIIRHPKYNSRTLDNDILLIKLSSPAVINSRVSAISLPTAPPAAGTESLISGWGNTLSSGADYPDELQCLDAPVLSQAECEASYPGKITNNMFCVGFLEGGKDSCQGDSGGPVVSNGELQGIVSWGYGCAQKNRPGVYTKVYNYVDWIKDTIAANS
Experimental: (§9) The Ki values were determined by the method of M. W. Empie and M. Laskowski, Jr., Biochem. 21, 2274 (1982).

cationic human Trypsin = cationic human Trypsin (Homo sapiens, UniProt P07477); test: as above
Experimental: as §9

[3] = substrate Benzoyl-Arg-pNA, amount inhibitor per assay 300 ng
[4] = substrate Pyr-Glu-Gly-Arg-pNA, amount inhibitor per assay 9 ng, control without inhibitor 0.85 (aprotinin), 0.84 (Glu-52-aprotinin)

ΔE/10 minutes (porcine trypsin [1]; substrate Benzoyl-Arg-pNA, amount inhibitor per assay 100 ng): 0.76
ΔE/10 minutes (porcine trypsin [1]; substrate Benzoyl-Arg-pNA, amount inhibitor per assay 200 ng): 0.57
ΔE/10 minutes (porcine trypsin [1]; [3]): 0.39
ΔE/10 minutes (porcine trypsin [1]; substrate Benzoyl-Arg-pNA, amount inhibitor per assay 400 ng): 0.08
ΔE/10 minutes (porcine trypsin [1]; substrate Benzoyl-Arg-pNA, amount inhibitor per assay 500 ng): 0.00
ΔE/10 minutes (porcine trypsin [2]; substrate Pyr-Glu-Gly-Arg-pNA, amount inhibitor per assay 3 ng, control without inhibitor 0.85): 0.62
ΔE/10 minutes (porcine trypsin [2]; substrate Pyr-Glu-Gly-Arg-pNA, amount inhibitor per assay 6 ng, control without inhibitor 0.85): 0.39
ΔE/10 minutes (porcine trypsin [2]; [4]): 0.29
ΔE/10 minutes (porcine trypsin [2]; substrate Pyr-Glu-Gly-Arg-pNA, amount inhibitor per assay 12 ng, control without inhibitor 0.85): 0.18
ΔE/10 minutes (porcine trypsin [2]; substrate Pyr-Glu-Gly-Arg-pNA, amount inhibitor per assay 15 ng, control without inhibitor 0.85): 0.13
Substance: Aprotinin [reference compound]

Ki (anionic human Trypsin): < 0.01 nM
Ki (cationic human Trypsin): < 0.01 nM
Substance: Arg-15-Glu-52-aprotinin

active molecules contained (porcine trypsin [1]; concluded from the trypsin inhibition dose-response curves against authentic aprotinin): ~100%
trypsin inhibitory activity, dose-response curve compared with aprotinin (porcine trypsin [1]; substrate Benzoyl-Arg-pNA, FIG. 11): identical dose-response curves
ΔE/10 minutes (porcine trypsin [1]; substrate Benzoyl-Arg-pNA, amount inhibitor per assay 60 ng): 0.77
ΔE/10 minutes (porcine trypsin [1]; substrate Benzoyl-Arg-pNA, amount inhibitor per assay 120 ng): 0.68
ΔE/10 minutes (porcine trypsin [1]; substrate Benzoyl-Arg-pNA, amount inhibitor per assay 180 ng): 0.58
ΔE/10 minutes (porcine trypsin [1]; substrate Benzoyl-Arg-pNA, amount inhibitor per assay 240 ng): 0.44
ΔE/10 minutes (porcine trypsin [1]; [3]): 0.30
equilibrium constants of the trypsin-inhibitor complexes compared with aprotinin (porcine trypsin [2]; concluded from the trypsin inhibition dose-response curves): in the same order of magnitude
trypsin inhibitory activity, dose-response curve compared with aprotinin (porcine trypsin [2]; substrate Pyr-Glu-Gly-Arg-pNA, FIG. 11): identical dose-response curves
ΔE/10 minutes (porcine trypsin [2]; substrate Pyr-Glu-Gly-Arg-pNA, amount inhibitor per assay 1.8 ng, control without inhibitor 0.84): 0.67
ΔE/10 minutes (porcine trypsin [2]; substrate Pyr-Glu-Gly-Arg-pNA, amount inhibitor per assay 3.6 ng, control without inhibitor 0.84): 0.56
ΔE/10 minutes (porcine trypsin [2]; substrate Pyr-Glu-Gly-Arg-pNA, amount inhibitor per assay 5.4 ng, control without inhibitor 0.84): 0.47
ΔE/10 minutes (porcine trypsin [2]; substrate Pyr-Glu-Gly-Arg-pNA, amount inhibitor per assay 7.2 ng, control without inhibitor 0.84): 0.32
ΔE/10 minutes (porcine trypsin [2]; [4]): 0.28
Substance: Glu-52-aprotinin
